Laboratory results taken from patent US10987354B2, “Inhibitors of influenza virus replication and uses thereof” (SUNSHINE LAKE PHARMA CO., LTD., priority 2016, dated 2021).
Like-named read-outs stand apart in the source and are kept apart here.

Experiments:
virus H1N1 A/Weiss/43 = assay: microbe, parasite or virus in culture; format: cell-based; conditions: Influenza A virus, H1N1, 120 h; MDCK cells, CPE, 5 days, CCK-8; read-out: EC50, inhibitory activity against influenza virus (A/Weiss/43(H1N1))
[1] = test system: Influenza B virus-B/Lee/40; assay: microbe, parasite or virus in culture; format: cell-based; conditions: 72 h, read-out: EC50, inhibitory activity against influenza virus (Influenza B virus-B/Lee/40)
[2] = MDCK cells, CPE, 3 days, CellTiter

Row | Structure (SMILES) | EC50 (virus H1N1 A/Weiss/43) | EC50 [1, 2] | EC50 ([1]; MDCK)
1 | CC(C)n1ccc2c(N[C@H]3C4CCC(CC4)[C@@H]3C(=O)O)nc(-c3c[nH]c4ncc(Cl)nc34)nc21 [Example 20, (2S,3S)-3-((2-(2-chloro-5H-pyrrolo[2,3-b]pyrazin-7-yl)-7-isopropyl-7H-pyrrolo[2,3-d]pyrimidin-4-yl)amino)bicyclo[2.2.2]octane-2-carboxylic Acid] | 0.192 nM | 1620 nM | 
2 | O=C(O)[C@H]1C2CCC(CC2)[C@@H]1Nc1nc(-c2c[nH]c3ncc(Cl)nc23)nc(-n2cccc2)c1F [Example 60, (2S,3S)-3-((2-(2-chloro-5H-pyrrolo[2,3-b]pyrazin-7-yl)-5-fluoro-6-(1H-pyrrol-1-yl)pyrimidin-4-yl)amino)bicyclo[2.2.2]octane-2-carboxylic Acid] |  | 26400 nM | 
3 | O=C(O)C1C2CCC(CC2)C1Nc1nc(-c2c[nH]c3ncc(F)cc23)ncc1F (stereo not shown) [JNJ-872, reference compound] |  |  | > 50000 nM
